Data on 13 molecules can be found in ChEMBL document CHEMBL1201862, “PubChem BioAssay data set” (2004).

Active and inactive are the calls of the source.

The target of one assay is NS3 (Hepatitis C virus, UniProt A3EZJ3). Nature of the assay: NS3h DNA-binding inhibition IC50 – biochemical, fluorescence polarization, ChemBridge library, dose response (AID 743264). On the technique in general: Polarisation of emitted light reports the rotation of a fluorescent probe.
Assay [1] is described as follows: viability of uninfected HEp-2 cells – cell-based, HTS, cytotoxicity control for RSV inhibitor project, dose response (AID 2410). Type of assay: functional. The settings on record: human respiratory syncytial virus.
The target of assay [2] is Arf-GAP with SH3 domain, ANK repeat and PH domain-containing protein 1 (Homo sapiens, UniProt Q9ULH1). Type of assay: functional.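 Further: biochemical fluorescence polarization dose–response screen measuring inhibition of ASAP1; ASAP1 GAP domain stimulating GTP hydrolysis by truncated human ARF1.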
Arf-GAP with SH3 domain, ANK repeat and PH domain-containing protein 1, sequence (Q9ULH1 whole entry, the tested form may be a part): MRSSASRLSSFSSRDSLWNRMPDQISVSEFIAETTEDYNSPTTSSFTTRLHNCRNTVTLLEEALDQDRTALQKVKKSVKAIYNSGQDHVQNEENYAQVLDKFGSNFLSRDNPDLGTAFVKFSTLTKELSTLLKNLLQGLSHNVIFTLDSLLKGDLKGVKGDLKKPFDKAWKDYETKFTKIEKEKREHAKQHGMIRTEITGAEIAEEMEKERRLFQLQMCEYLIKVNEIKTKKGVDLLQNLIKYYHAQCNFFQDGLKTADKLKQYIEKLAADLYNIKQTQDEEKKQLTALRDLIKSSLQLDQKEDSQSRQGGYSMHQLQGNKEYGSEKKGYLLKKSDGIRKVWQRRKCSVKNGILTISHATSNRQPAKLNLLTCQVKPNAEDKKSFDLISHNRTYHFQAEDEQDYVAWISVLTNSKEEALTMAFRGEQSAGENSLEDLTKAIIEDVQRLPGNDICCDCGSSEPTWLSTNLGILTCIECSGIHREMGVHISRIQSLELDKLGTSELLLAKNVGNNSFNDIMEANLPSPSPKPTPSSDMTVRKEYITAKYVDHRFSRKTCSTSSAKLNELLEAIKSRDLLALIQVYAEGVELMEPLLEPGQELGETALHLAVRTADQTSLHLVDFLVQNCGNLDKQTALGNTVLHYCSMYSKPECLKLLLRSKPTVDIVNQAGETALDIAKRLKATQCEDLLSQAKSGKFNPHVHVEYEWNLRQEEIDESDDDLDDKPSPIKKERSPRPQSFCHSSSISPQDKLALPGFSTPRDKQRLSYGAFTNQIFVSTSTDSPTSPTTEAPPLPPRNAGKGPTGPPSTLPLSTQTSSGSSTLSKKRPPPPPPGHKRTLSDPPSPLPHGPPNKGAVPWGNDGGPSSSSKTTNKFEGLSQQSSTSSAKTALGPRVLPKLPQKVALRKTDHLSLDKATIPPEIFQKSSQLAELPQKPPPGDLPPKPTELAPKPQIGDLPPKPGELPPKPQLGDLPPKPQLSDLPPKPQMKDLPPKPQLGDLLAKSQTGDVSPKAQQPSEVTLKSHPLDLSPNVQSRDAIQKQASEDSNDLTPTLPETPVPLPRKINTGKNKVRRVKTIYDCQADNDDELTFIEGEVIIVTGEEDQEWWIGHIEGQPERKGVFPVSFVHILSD
Assay [3] deals with T1, Methionyl-tRNA synthetase, putative (Trypanosoma brucei brucei, UniProt Q38C91). It is filed as functional, Trypanosoma brucei brucei strain 927/4 GUTat10.1.
T1 sequence (Q38C91 whole entry): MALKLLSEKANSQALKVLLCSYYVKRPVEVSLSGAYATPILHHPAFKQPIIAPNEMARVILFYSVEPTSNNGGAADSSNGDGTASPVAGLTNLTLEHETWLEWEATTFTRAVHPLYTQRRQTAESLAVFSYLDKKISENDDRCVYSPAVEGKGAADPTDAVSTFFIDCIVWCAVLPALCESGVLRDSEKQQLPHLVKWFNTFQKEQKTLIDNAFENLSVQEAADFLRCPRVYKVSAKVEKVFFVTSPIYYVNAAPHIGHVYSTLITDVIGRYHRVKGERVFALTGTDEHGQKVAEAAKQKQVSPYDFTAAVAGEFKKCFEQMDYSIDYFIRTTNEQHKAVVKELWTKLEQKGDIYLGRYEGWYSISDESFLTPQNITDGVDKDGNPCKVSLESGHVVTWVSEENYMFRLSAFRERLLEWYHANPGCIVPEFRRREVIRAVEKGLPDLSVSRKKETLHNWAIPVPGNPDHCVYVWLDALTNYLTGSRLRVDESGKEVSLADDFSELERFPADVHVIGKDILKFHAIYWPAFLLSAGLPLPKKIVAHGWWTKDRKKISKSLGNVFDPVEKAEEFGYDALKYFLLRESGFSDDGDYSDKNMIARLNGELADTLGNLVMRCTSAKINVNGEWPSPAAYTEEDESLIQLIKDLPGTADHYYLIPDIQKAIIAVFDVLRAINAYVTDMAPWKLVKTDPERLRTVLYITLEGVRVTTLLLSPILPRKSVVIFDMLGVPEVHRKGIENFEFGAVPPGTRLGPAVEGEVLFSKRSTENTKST
Assay [4] can be described thus: Counterscreen for inhibitors of Trypanosoma brucei methionyl tRNA synthetase (MetRS): Luminescence-based cell-based high throughput dose response assay to identify compounds that are cytotoxic to Jurkat human T lymphocyte cells. Type of assay: functional. For orientation: Counterscreens check selectivity or assay interference.
Assay [5] deals with T1, Methionyl-tRNA synthetase, putative. Type of assay: functional, Trypanosoma brucei brucei strain 927/4 GUTat10.1. The source holds these as a separate data set.
For assay [6], the target named is Fructose-bisphosphate aldolase (Mycobacterium tuberculosis, UniProt P9WQA3). Nature of the assay: Fluorescence-based biochemical high throughput dose response assay for inhibitors of the fructose-bisphosphate aldolase (FBA) of M. tuberculosis. It is filed as functional.
Fructose-bisphosphate aldolase, sequence (P9WQA3 whole entry): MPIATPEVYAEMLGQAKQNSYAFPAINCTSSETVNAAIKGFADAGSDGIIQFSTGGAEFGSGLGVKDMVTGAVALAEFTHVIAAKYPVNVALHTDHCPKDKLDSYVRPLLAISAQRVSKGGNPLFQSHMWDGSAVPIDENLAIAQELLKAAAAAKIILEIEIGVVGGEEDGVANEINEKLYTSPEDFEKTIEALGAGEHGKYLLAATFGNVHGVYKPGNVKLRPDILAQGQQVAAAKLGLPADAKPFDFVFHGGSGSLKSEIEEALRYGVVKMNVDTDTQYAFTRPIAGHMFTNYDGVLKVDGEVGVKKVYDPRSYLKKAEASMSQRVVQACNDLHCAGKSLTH
Another assay deals with Nonstructural protein 1 (Influenza A virus, UniProt Q194T2). It is filed as functional, Influenza A virus (A/California/07/2009(H1N1)).
Nonstructural protein 1, sequence (Q194T2 whole entry): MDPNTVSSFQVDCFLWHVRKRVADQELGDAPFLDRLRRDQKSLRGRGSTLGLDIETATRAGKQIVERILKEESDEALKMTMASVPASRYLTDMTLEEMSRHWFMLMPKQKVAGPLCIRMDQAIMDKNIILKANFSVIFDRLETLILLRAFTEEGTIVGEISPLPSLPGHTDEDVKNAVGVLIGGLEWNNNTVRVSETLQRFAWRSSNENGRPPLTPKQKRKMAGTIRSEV
The next assay concerns the target Protein S100-A4 (Homo sapiens, UniProt P26447). Nature of the assay: human S100A4 peptide interaction inhibition curves – biochemical, fluorescence polarization, cherry-picked hits, dose response (AID 687001). It is filed as functional.
The target of a further assay is T2, Leucine aminopeptidase (Plasmodium falciparum 3D7, UniProt Q8IL11).
T2 sequence (Q8IL11 whole entry): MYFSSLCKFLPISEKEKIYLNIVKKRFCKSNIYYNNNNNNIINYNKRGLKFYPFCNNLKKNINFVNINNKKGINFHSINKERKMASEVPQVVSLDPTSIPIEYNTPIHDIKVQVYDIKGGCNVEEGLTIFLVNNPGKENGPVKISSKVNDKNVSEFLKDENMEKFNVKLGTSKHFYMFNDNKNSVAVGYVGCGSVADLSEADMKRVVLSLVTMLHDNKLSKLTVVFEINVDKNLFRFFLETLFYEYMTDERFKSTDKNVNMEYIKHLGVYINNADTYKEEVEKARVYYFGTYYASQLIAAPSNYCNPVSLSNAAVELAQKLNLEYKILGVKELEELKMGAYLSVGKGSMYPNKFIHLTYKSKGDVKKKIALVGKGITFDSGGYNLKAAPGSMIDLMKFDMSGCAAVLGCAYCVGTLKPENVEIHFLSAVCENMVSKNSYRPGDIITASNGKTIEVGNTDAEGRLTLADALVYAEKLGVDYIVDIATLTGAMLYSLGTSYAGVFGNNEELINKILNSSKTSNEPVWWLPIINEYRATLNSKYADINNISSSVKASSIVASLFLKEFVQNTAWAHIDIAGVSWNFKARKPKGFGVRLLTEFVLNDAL
Nature of the assay: P. falciparum M17LAP inhibitors, primary screen, biochemical, fluorogenic H-Leu-NHMec substrate, 1536-well (AID 1619). It is filed as functional.

A further assay addresses Large T antigen (Simian virus 40, UniProt P03070). Type of assay: functional, Betapolyomavirus macacae.
Assay [7] in a line: activation of miR-122 Renilla sensor silencing – cell-based, Huh7 psiCHECK-miR122, Renilla luciferase, cherry-picked, dose response (AID 651956).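 Further: huh7 hepatoma cells stably carrying a psiCHECK-2 miR-122 sensor plasmid; renilla luciferase signal reporting endogenous miR-122 activity after 48 h compound exposure.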 It is filed as functional.
A short description of assay [8]: general mammalian cell viability loss – inhibitor set, cherry-pick, set 2, cytotoxicity control for miR-122 modulator project, dose response (AID 720697). It is filed as functional, cell-based.
A further assay relates to H9c2. Nature of the assay: cells. Type of assay: functional, cell-based. Particulars: Rattus norvegicus, H9c2, Myocardium.
Assay [9] has as its target T3, Probable nicotinate-nucleotide adenylyltransferase (Staphylococcus aureus (strain N315), UniProt P65502). Type of assay: functional, Staphylococcus aureus subsp. aureus N315.
The target of assay [10] is T3, Probable nicotinate-nucleotide adenylyltransferase. It is filed as functional, Staphylococcus aureus subsp. aureus N315. The settings on record: read-out: IC50_Mean.
For a further assay, the target named is Albumin (Bos taurus, UniProt P02769). Nature of the assay: Counterscreen for inhibitors of T-cell receptor (TCR)-CD3 interaction: Fluorescence-based biochemical high throughput dose response assay to identify inhibitors of T-cell receptor (TCR)-CD3 interaction using a TAMRA-labeled BSA probe. It is filed as functional.
Albumin, sequence (P02769 whole entry): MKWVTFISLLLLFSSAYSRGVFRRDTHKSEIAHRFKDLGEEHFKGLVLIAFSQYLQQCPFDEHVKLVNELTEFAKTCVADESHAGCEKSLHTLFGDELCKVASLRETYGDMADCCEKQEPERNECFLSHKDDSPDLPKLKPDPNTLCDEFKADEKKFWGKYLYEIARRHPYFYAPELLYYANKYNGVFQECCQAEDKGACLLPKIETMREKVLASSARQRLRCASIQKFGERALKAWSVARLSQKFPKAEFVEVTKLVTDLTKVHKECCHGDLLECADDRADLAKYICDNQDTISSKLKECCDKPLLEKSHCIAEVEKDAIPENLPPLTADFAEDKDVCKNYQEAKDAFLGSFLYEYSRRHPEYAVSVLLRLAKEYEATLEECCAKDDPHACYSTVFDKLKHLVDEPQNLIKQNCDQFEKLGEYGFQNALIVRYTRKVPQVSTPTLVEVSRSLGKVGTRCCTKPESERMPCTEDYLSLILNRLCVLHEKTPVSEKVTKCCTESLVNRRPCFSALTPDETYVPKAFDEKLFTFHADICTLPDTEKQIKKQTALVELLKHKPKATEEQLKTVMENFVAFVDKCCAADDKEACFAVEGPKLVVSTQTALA
Assay [11] has as its target T4, Scavenger receptor class B member 1 (Mus musculus, UniProt Q61009). Nature of the assay: mouse SR-BI DiI-HDL transfer blockers – ldlA[mSR-BI] CHO cells, fluorescence plate reader, dry powder, set 9, dose response (AID 623880). Type of assay: functional, cell-based.
The target in assay [12] is T4, Scavenger receptor class B member 1. Nature of the assay: blockers of DiI-HDL lipid transfer via SR-BI – cell-based, ldlA[mSR-BI] CHO, DiI fluorescence, dry powder, set 10, dose response (AID 624029). It is filed as functional.
Assay [13] is described as follows: A549 cell cytotoxicity, dose response, cytotoxicity control, plate reader, cherry-pick, antagonist series (AID 743412). It is filed as functional, cell-based.
A short description of assay [14]: inhibition of bursicon-driven LGR2 cAMP signaling – cell-based, HEK293, CRE-luciferase reporter, cherry pick, dose response (AID 743342). It is filed as functional. (In general: In a reporter assay the amount or activity of a reporter protein is the signal.)
The nature of assay [15]: A Cell-Based Confirmatory Screen for Compounds that Inhibit VEEV, TC-83 (8). Type of assay: functional.
The target in assay [16] is T5, Sentrin-specific protease 8 (Homo sapiens, UniProt Q96LD8).
T5 sequence (Q96LD8 whole entry): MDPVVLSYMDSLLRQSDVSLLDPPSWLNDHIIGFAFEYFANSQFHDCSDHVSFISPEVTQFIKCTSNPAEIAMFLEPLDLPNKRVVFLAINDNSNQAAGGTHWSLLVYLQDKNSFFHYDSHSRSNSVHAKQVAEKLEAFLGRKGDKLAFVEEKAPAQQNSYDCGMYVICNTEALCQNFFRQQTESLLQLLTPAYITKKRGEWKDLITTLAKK
Type of assay: functional.

Assay [17] concerns the target T5, Sentrin-specific protease 8. It is filed as functional. The source holds these as a separate data set.
The next assay deals with HeLa. Nature of the assay: ATP-based viability loss in HeLa cells – cell-based, CellTiter-Glo luminescence, cherry-pick samples, cytotoxicity control for MITF activator project, dose response (AID 540259). Type of assay: functional. The settings on record: Homo sapiens.
In another assay the target is T6, Protein skinhead-1 (Caenorhabditis elegans, UniProt P34707).
T6 sequence (P34707 whole entry): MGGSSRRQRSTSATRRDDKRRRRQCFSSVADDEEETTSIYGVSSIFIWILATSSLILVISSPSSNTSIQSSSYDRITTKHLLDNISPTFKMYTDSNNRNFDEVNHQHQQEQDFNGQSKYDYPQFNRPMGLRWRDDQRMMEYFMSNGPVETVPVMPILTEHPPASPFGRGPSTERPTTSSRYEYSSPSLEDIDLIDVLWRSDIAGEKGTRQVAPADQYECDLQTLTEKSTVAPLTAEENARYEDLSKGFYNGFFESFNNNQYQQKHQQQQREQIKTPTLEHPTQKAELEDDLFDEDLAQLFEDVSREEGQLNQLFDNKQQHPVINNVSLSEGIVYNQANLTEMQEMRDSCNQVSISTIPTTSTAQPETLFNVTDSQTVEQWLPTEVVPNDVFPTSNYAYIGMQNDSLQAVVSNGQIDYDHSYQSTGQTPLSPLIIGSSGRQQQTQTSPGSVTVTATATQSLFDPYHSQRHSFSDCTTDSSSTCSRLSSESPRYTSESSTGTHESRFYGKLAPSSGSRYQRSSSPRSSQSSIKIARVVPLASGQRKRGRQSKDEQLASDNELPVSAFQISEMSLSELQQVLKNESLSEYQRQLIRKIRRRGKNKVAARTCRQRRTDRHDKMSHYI
Type of assay: functional.

Assay [18] has as its target T7, Oxysterols receptor LXR-beta (Homo sapiens, UniProt P55055).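 Further: agonist activity at LXR measured by a cell-based luminescence readout across a dose range, run as a counterscreen for daf-12 agonists; HEK293 cells with Gal4-LXR fusion and GAL4-driven luciferase reporter; potency for activation of Gal4-LXR reporter so compounds are agonists.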
T7 sequence (P55055 whole entry): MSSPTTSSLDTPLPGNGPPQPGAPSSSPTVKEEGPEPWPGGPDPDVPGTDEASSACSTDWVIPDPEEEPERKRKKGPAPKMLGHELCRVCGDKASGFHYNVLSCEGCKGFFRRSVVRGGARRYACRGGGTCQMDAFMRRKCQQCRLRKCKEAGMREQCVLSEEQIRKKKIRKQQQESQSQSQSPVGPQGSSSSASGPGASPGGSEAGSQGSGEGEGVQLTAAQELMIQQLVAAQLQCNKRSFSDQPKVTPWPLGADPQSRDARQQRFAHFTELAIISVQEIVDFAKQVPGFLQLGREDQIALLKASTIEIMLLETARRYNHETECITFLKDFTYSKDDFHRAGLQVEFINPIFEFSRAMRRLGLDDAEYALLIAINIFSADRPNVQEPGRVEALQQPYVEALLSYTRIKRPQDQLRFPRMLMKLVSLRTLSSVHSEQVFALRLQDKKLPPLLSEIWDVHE
Type of assay: functional, cell-based.

A short description of assay [19]: MITF Orthogonal Assay: SK-MEL-5 CTG Assay Measured in Cell-Based System Using Plate Reader - 2084-02_Inhibitor_Dose_DryPowder_Activity_Set7. Type of assay: functional.
Assay [20] is described as follows: MITF: Counter assay: A375 proliferation Measured in Cell-Based System Using Plate Reader - 2084-03_Inhibitor_Dose_DryPowder_Activity_Set8. Type of assay: functional. The settings on record: A-375.
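Wherever IC50 Mean is given: confirmatory dose-response retesting of NadD inhibitor hits first found in an ultra-high-throughput screen.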

T4 sequence (Q61009 whole entry): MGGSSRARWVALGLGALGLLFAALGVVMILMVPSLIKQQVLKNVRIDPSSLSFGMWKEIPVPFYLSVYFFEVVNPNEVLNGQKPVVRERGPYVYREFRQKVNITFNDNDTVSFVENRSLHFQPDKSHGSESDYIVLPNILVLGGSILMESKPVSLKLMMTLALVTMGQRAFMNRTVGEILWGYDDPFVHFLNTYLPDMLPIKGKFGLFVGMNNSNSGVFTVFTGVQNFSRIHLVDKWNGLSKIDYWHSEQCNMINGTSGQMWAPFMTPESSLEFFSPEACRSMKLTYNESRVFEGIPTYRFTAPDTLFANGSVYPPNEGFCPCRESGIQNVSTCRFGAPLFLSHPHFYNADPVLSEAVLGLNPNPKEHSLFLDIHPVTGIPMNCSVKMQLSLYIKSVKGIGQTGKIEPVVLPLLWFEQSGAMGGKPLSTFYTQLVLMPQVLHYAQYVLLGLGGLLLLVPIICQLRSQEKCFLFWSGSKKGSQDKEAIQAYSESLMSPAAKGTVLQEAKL
T3 sequence (P65502 whole entry): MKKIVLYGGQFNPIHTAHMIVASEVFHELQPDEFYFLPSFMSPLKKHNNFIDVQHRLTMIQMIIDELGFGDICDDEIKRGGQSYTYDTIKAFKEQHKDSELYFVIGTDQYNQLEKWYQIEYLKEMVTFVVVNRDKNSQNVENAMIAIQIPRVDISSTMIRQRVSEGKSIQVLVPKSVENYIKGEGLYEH
Protein S100-A4, sequence (P26447 whole entry): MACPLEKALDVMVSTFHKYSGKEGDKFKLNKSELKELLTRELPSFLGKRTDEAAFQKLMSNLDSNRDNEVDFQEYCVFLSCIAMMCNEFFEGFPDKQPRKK
Large T antigen, sequence (P03070 whole entry): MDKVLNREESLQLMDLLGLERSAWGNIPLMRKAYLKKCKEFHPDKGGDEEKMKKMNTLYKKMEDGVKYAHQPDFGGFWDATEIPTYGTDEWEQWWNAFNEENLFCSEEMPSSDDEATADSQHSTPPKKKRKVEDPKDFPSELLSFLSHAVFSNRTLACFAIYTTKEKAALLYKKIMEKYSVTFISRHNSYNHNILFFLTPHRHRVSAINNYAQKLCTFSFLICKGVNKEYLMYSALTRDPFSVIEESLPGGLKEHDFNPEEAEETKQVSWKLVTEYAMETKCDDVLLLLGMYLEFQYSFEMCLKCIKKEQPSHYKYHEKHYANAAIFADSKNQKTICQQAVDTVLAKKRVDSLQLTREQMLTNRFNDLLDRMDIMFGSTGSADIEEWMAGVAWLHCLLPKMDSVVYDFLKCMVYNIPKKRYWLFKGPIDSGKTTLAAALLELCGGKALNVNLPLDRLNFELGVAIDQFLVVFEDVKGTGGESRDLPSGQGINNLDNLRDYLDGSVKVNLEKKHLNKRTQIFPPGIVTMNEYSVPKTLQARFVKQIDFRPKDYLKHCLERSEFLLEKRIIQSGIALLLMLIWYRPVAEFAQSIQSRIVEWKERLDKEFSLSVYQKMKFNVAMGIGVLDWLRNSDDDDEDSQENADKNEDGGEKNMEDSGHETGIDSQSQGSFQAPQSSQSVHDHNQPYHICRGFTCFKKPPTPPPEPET

Regarding `Cc1ccc(C)n1NC1=NC(=O)CS1`, the IC50 on NS3 was 27.2 µM (inactive).
With `Fc1ccc(Nc2nc(-c3ccncc3)nc3ccccc23)cc1F`, in assay [1], the 50% cytotoxic concentration (CC50) is 45.1 µM (active). The IC50 in assay [2] was 46.5 µM (inactive).
As for `COc1ccc(OCc2cc(C(=O)NCc3nc(C)cs3)no2)c(Cl)c1`, the results for the IC50 in assay [3], in assay [4] and in [5] were 46.9 µM (inactive), 83.3 µM (inactive) and 23.5 µM (inactive), respectively.
For `Cc1nc2oc3c(=O)nc[nH]c3c2c2c1COC(C)(C)C2`, the IC50 in assay [6] is 2.33 µM (active).
Consider `CC1N(C)c2cc(NC(=O)c3ccco3)ccc2C1(C)C` (centres undefined), for which the IC50 on Nonstructural protein 1 is 69.6 µM (active). Moreover, the concentration at half-maximal activity (AC50) at Protein S100-A4 is 1.91 µM (active).
Turning to `Cc1cccc(C)c1NC(=O)CSCC(=O)c1ccc(O)c(O)c1`, the IC50 at Leucine aminopeptidase is 20.9 µM (active); on Large T antigen, 12.8 µM (active). For the same molecule, the values for the AC50 in assay [7] and in assay [8] were 15 µM (active) and 2.43 µM (active), respectively.
Turning to `CCOC(=O)Cn1/c(=N/C(=O)c2cc(-c3cccs3)nc3ccccc23)sc2cc(S(N)(=O)=O)ccc21`, the IC50 is > 79 µM (inactive) in the assay on H9c2, 14.2 µM (active) in assay [9], 31.4 µM (active) in assay [10] and > 94.1 µM (inactive) on Albumin.
As to `C[C@@H]1CN([C@H](C)CO)C(=O)c2cc(NC(=O)C3CCCCC3)ccc2O[C@H]1CN(C)S(=O)(=O)c1cccc(Cl)c1`, the AC50 in assay [11] is 0.796 µM (active); in assay [12] it was 1.22 µM (active).
In the case of `C[C@H]1CCCCO[C@@H](CN(C)C(=O)Nc2ccccc2)[C@@H](C)CN([C@@H](C)CO)C(=O)c2cc(NC(=O)NC3CCCCC3)ccc2O1`, the AC50 in assay [13] is 43.3 µM (active); in [14] it was 5.33 µM (active).
Turning to `CCN1CCN(C)C/C1=N\c1ccc([N+](=O)[O-])cc1C(=O)Nc1ccccc1`, the IC50 in assay [15] was < 0.22 µM (active).
As to `CCCCO/C(O)=C1\C(C)=NC2(O)c3ccccc3C(=O)C12O` (centres undefined), the IC50 in assay [16] was 4.54 µM (active); in [17], 10 µM (active).
Take `C/C(=N/OCc1ccc(Br)cc1)c1ccccn1`: in the assay with HeLa, the AC50 is 90.3 µM (active). Moreover, the IC50 on Protein skinhead-1 was 34.5 µM (active). Moreover, the EC50 in [18] was > 67.6 µM (inactive).
`O=C1C=C(Nc2ccc(F)cc2)C(=O)c2ccccc21`: the AC50 in [19] is 0.595 µM (active); in [20], > 70 µM (inactive).

One may read the CC50 as the concentration giving 50% cytotoxicity. The AC50 is the concentration giving half of the maximal activity seen. In general, EC50 refers to the concentration that produces a half-maximal response.
